Assays:
YST-1 = assay: relative IC50 (inflection point of fitted dose-response curve, CellTiter-Glo viability, 72 h; top asymptote may be below 50% inhibition); higher = less potent
How it was run: (§1)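 Viability of MPNST cell lines and primary human Schwann cells was read as CellTiter-Glo ATP luminescence after 72 h at 37 °C, 5% CO2, in 384-well plates seeded with 750–1000 cells per well. Each compound had been preprinted at five concentrations in 10-fold steps. Signals were scaled between vehicle and positive-control wells, duplicates averaged where present, and fitted with four-parameter logistic curves. Drug sensitivity score and relative IC50 (censored at the top concentration) come from those fits, and percent inhibition is taken at the top concentration.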

HS-Sch-2 = assay: as above
How it was run: as §1

HS-PSS = assay: relative IC50 (inflection point of fitted dose-response curve, CellTox-Green cytotoxicity, 72 h; top asymptote may be below 50%); higher = less potent
How it was run: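 MPNST cell lines and primary human Schwann cells were grown for 72 h at 37 °C in 384-well plates containing five 10-fold compound dilutions. CellTox-Green, added before seeding at a final 1:1000 dilution, gave fluorescence from DNA released by disrupted cells, and signals were scaled to vehicle and positive-control wells. Curves were fitted with a four-parameter logistic model. Drug sensitivity score and relative IC50 come from these fits, with IC50 censored at the top concentration.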

Compound	relative IC50 (YST-1) [nM]	relative IC50 (HS-Sch-2) [nM]	relative IC50 (HS-PSS) [nM]
Cc1nc(=O)c2cc(CN(C)c3ccc(C(=O)N[C@@H](CCC(=O)O)C(=O)O)s3)ccc2[nH]1 [Raltitrexed]	11.2	22.7	> 1000
CNC(=O)c1cccc2cc(Oc3ccnc4cc(OCC5(N)CC5)c(OC)cc34)ccc12 [Lucitanib]	1420	3710	> 10000
CC[C@H](NC(=O)[C@H](C)NC)C(=O)N1C[C@@H](O)C[C@H]1Cc1c(-c2[nH]c3cc(F)ccc3c2C[C@@H]2C[C@H](O)CN2C(=O)[C@H](CC)NC(=O)[C@H](C)NC)[nH]c2cc(F)ccc12 [Birinapant]	> 1000	> 1000	> 1000
c1cc(CN2CCCNCCNCCCNCC2)ccc1CN1CCCNCCNCCCNCC1 [Plerixafor]	> 10000	> 10000	> 10000
C[C@@H]1CN(Cc2ccc(F)cc2)[C@@H](C)CN1C(=O)c1cc2c(C(=O)C(=O)N(C)C)cn(C)c2cc1Cl [Talmapimod]	283	> 10000	> 10000
CCCNC(=O)Nc1ccc(Oc2ncnc3cc(OC)c(OC)cc23)cc1Cl [KRN-633]	> 2500	> 2500	> 2500
NC1(C(=O)N[C@@H](CCO)c2ccc(Cl)cc2)CCN(c2ncnc3[nH]ccc23)CC1 [AZD-5363]	2090	3470	> 10000
CC(C)[C@@H](CS(=O)(=O)C(C)C)N1C(=O)[C@@](C)(CC(=O)O)C[C@H](c2cccc(Cl)c2)[C@H]1c1ccc(Cl)cc1 [AMG-232]	190	> 1000	> 1000
CS(=O)(=O)c1ccc(-c2cnc(N)c(C(=O)Nc3ccccc3)n2)cc1 [VE-821]	> 10000	> 10000	> 10000
Cn1ncnc1[C@H]1c2n[nH]c(=O)c3cc(F)cc(c23)N[C@@H]1c1ccc(F)cc1 [Talazoparib]	9.15	105	> 1000
Nc1nc(Nc2ccc3c(c2)CC[C@@H](N2CCCC2)CC3)nn1-c1cc2c(nn1)-c1ccccc1CCC2 [BGB324]	2140	570	> 10000
COCC1(CO)C(=O)C2CCN1CC2 (stereo unspecified) [APR-246]	> 10000	> 10000	> 10000
CNc1nc(Nc2cn(C(C)(C)C#N)nc2C)ncc1C(F)(F)F [GNE-0877]	> 1000	> 1000	> 1000
O=C(c1cccc(Cl)c1F)N1CCN(Cc2cccc(Nc3nccs3)n2)CC1 [MK-8745]	231	623	> 2500
CC[C@H](C)C(=O)O[C@H]1C[C@H](O)C=C2C=C[C@H](C)[C@H](CC[C@@H](O)C[C@@H](O)CC(=O)O)[C@H]21 [Pravastatin]	> 10000	> 10000	> 10000
O=C(Nc1cccc(Cl)c1)Nc1ncc(CCNc2ncnc3ccsc23)s1 [SNS-314]	8.84	185	> 1000
Cc1csc(-c2nnc(Nc3ccc(Oc4ncccc4-c4ccnc(N)n4)cc3)c3ccccc23)c1 [AMG-900]	11	326	> 1000
Cn1ncc(Cl)c1-c1cc(C(=O)N[C@H](CN)Cc2cccc(F)c2)sc1Cl [Afuresertib]	327	> 1000	> 1000
O=C(Nc1nc2cccc(-c3ccc(CN4CCS(=O)(=O)CC4)cc3)n2n1)C1CC1 [Filgotinib]	3690	2680	> 10000
CN(C)C(=N)NC(=N)N [Metformin]	> 100000	> 100000	> 100000
COc1ccc2c(OCc3nnc4ccc(-c5ccccc5)nn34)ccnc2c1 [AMG-208]	> 2500	> 2500	> 2500
COc1ccc(Cn2ccc3ccc(C(=O)NO)cc32)cc1	1600	3750	> 10000

— the supplement of paper PMC5579334
